Results from patent US20100291089A1, “LIGAND OF REGULATING IMMUNE RESPONSE, AND USE THEREOF IN TREATING AN IMMUNE RESPONSE-RELATED DISEASE” (POSTECH ACADEMY-INDUSTRY FOUNDATION, priority 2005, published 2010).
Where no end group is shown, it is not given here.

How the values were obtained:
Type in all cases: cell-based
human neutrophils [1] = experiment: Western blot for ERK phosphorylation in human neutrophils; conditions: pretreating with 1 μM WRW4
Experimental: (§1) Neutrophils were stimulated with 1 μM of PACAP27 (SEQ ID NO:1), PACAP38 (SEQ ID NO:2), or VIP (SEQ ID NO:3), and calcium concentrations were measured for 10 min. In order to measure EKR phosphorylation, each peptide hormones was used with 1 μM concentrations for 5 min. For cAMP measurement, each peptide hormones was used with 1 μM concentrations for 10 min.
ERK phosphorylation levels were measured by Western blotting, as described in above Bae, Y. S. et al. Cells (2×10^6/assay) were stimulated with the indicated concentration of agonist for 5 minutes, then washed with serum-free RPMI 1640 medium and lysed in lysis buffer {20 mM HEPES (pH 7.2), 10% glycerol, 150 mM NaCl, 1% Triton X-100, 1 mM PMSF, […], 50 mM NaF, and 1 mM Na3VO4}. Detergent-insoluble materials were pelleted by centrifugation (12,000×g, 15 minutes, 4° C.), and the soluble supernatant fraction was removed and either stored at −80° C. or used immediately. Laemmli sample buffer was added to these fractions and boiled (5 minutes). Proteins were separated by SDS-PAGE and transferred to nitrocellulose membranes (Schleicher and Schuell, BA85). Blocking was performed using TBS buffer (10 mM Tris/HCl, pH 7.5, 150 mM NaCl, and 0.05% Tween-20) containing 5% nonfat dry milk. Membranes were probed with a phospho-ERK specific primary antibody or ERK2 antibody for 3 hours at room temperature. […]

human neutrophils [2] = experiment: Intracellular cyclic AMP measurement in neutrophils; conditions: 1 μM WRW4, 10 μM PACAP27 for 10 minutes
Experimental: Neutrophils were stimulated with 1 μM of PACAP27 (SEQ ID NO:1), PACAP38 (SEQ ID NO:2), or VIP (SEQ ID NO:3), and calcium concentrations were measured for 10 min. In order to measure EKR phosphorylation, each peptide hormones was used with 1 μM concentrations for 5 min. […]
Briefly, neutrophils were isolated and resuspended at 5×10^6 cells/ml in Hank's balanced salt solution (HBSS) for 5-10 minutes in a shaking incubator. The HBSS was then replaced with […] HBSS containing 500 µM isobutylmethylxanthine (IBMX; a cAMP phosphodiesterase inhibitor) for 5 minutes, and then cells were stimulated for 10 minutes. The reaction was terminated by adding 1 ml of ethanol, and cAMP levels were determined by using cAMP measuring kit (Neurunex, Pohang, Korea) according to the manufacturer's instructions.

human monocytes = experiment: Intracellular calcium signaling in human monocytes; conditions: 1 μM WRW4
Source text: 1.3. Preparation of Neutrophils and Monocytes Peripheral blood was collected from healthy donors (male, 20˜30 years old, venous blood collection). Human neutrophils were isolated by dextran sedimentation followed by hypotonic erythrocyte lysis and lymphocyte separation medium gradient, as described in “Bae, Y. S., H. Bae, Y. Kim, T. G. Lee, P. G. Suh, and S. H. Ryu. 2001. Identification of novel chemoattractant peptides for human leukocytes. Blood 97:2854-2862”. Isolated human neutrophils were used promptly. Peripheral blood mononuclear cells (PBMCs) were separated on a Histopaque-1077 gradient (Bae, Y. S., H. Bae, Y. Kim, T. G. Lee, P. G. Suh, and S. H. Ryu. 2001. Identification of novel chemoattractant peptides for human leukocytes. Blood 97:2854-2862). […]
Intracellular calcium concentrations ([Ca^2+]i) were determined using Grynkiewicz's method with fura-2/AM, as described in “Grynkiewicz, G., M. Poenie, and R. Y. Tsien. […] Fluorescence changes at 340 and 380 nm using a common emission wavelength of 500 nm were measured, and fluorescence ratios were converted to [Ca2+]i, as described in above Grynkiewicz, G. et al.

human neutrophils [3] = experiment: Neutrophil chemotaxis assay (multiwell chamber, checkerboard analysis); conditions: 1 μM WRW4, 1 μM PACAP27
Experimental: Chemotaxis assays were performed using multiwell chambers (Neuroprobe Inc., Gaithersburg, Md.) (Bae, Y. S., H. Bae, Y. Kim, T. G. Lee, P. G. Suh, and S. H. Ryu. 2001. Blood 97:2854-2862). Prepared human neutrophils were suspended in RPMI 1640 medium at a 1×10^6 cells/ml, and 25 μl of this suspension was placed into the upper well of a chamber separated from the lower chamber, which was filled with testing solutions, by a […] filter (not coated with polyvinylpyrrolidone). After incubating for 2 hours at 37° C., non-migrated cells were removed by scraping, and cells that had migrated across the filter were dehydrated, fixed, and stained with hematoxylin (Sigma, St. Louis, Mo.). Stained cells in five randomly chosen high power fields (HPF) (400×) were then counted.
Neutrophil migration was analyzed for 2 hours across a polycarbonate membrane. Various concentrations of PACAP27 (SEQ ID NO:1) as shown in the following Table 1 were placed in the upper and lower compartments of the chambers. Data are presented as means±SE for migrated neutrophils cells per field counted in triplicate of two independent experiments.

human neutrophils [4] = experiment: Intracellular calcium mobilization (fura-2) in human neutrophils
Experimental: as §1
Intracellular calcium concentrations ([Ca^2+]i) were determined using Grynkiewicz's method with fura-2/AM, as described in “Grynkiewicz, G., M. Poenie, and R. Y. Tsien. 1985. […] J. Biol. Chem. 260:3440-3450”. Briefly, the cells prepared in Example 1.2 were incubated with 3 µM fura-2/AM at 37° C. for 50 minutes in fresh serum free RPMI 1640 medium with continuous stirring. The incubated cells (2×10^6) were aliquoted for each assay in Ca^2+-free Locke's solution (154 mM NaCl, 5.6 mM KCl, 1.2 mM MgCl2, 5 mM HEPES (pH 7.3), 10 mM glucose, and 0.2 mM EGTA). Fluorescence changes at 340 and 380 nm using a common emission wavelength of 500 nm were measured, and fluorescence ratios were converted to [Ca2+]i, as described in above Grynkiewicz, G. et al.

human neutrophils [5] = experiment: FACS analysis of surface CD11b expression on neutrophils; conditions: 1 μM WRW4, 10 μM PACAP27
Experimental: Purified neutrophils were incubated with indicated concentration of PACAP27 (SEQ ID NO:1) for 1 hour. Cells (2×10^5/assay) were washed with FACS buffer (PBS containing 1% BSA and 0.1% sodium azide), incubated with human AB type serum for 10 minutes on ice, and stained with PE-labeled human CD11b antibody (BD PharMingen, San Diego, Calif.). They were then analyzed using a FACSCalibur system (BD Biosciences, San Jose, Calif.), as described in “Harfi, I., S. D'Hondt, F. Corazza, and E. Sariban. 2004. J. Immunol. 173:4154-4163”.

WRWWWW [WRW4] was tested, and the “inhibition of PACAP27-induced ERK-phosphorylation” value (human neutrophils [1]) was “completely inhibited”, the “inhibition of PACAP27-induced cAMP elevation” value (human neutrophils [2]) was “failed to inhibit” and the “inhibition of PACAP27-induced calcium signaling in human monocytes” value (human monocytes) was “successfully inhibited”. The “inhibition of PACAP27-induced neutrophil chemotaxis” value (human neutrophils [3]) was “completely inhibited”, the “effect on PACAP27 priming of fMLP-induced calcium signaling” value (human neutrophils [4]; 1 M WRW4) was “abolished” and the “effect on fMLP-induced calcium signaling” value (human neutrophils [4]; 1 M WRW4, 10 nM fMLP) was “not affected”. The “concentration that completely inhibits PACAP27-induced neutrophil activation” value (human neutrophils [4]; human neutrophils) was at least 100 nM, the “inhibition of PACAP27-induced [Ca2+]i up-regulation” value (human neutrophils [4]; human neutrophils, pretreatment 30 seconds, 1 μM PACAP27) was “successfully inhibited” and the “inhibition of PACAP27-induced CD11b up-regulation” value (human neutrophils [5]) was “inhibited completely”.
